Reference: article PMC12029179, “6-Chlorocoumarin Conjugates with Nucleobases and Nucleosides as Potent Anti-Hepatitis C Virus Agents” (Molecules, 2025)

What was measured:
[1] = test system: subgenomic HCV genotype 1b replicon; set-up: method as in PMID 30951311; conditions: cited from earlier work
[2] = test system: HCV genotype 1b subgenomic replicon; assay: Anti-HCV assay in Huh 5-2 cells (luciferase replicon readout); assay type: cell-based, hepatitis C virus (HCV); conditions: for EC50: Huh-5-2, Huh 5-2 cells, luminescence
From the text: (§1) An evaluation of the antiviral effects of the conjugated compounds was initially performed in Huh 5-2 cells utilizing the HCV genotype 1b subgenomic replicon system, based on previously reported procedures. By analyzing the dose–response curves, we calculated the concentration of each compound that inhibited the viral replication by 50% (EC50) and the concentration that reduced the host-cell metabolic activity by 50% (CC50). These values were then used to compute the selectivity index (SI = CC50/EC50), which serves as an indicator of a compound’s therapeutic window. Even if an EC50 was determined from the dose–response curve in the antiviral assay, the compounds that were evaluated may not qualify as promising hits. […] It is likely that the antiviral activity observed in the other compounds is due to their nonspecific or pleiotropic effects on the host cell.
Huh 5-2 cells were plated in white, tissue culture-treated 96-well view plates (Packard, Canberra, Canada) at a density of 5 × 10^3 cells per well, using complete Dulbecco’s Modified Eagle Medium (DMEM) containing 250 µg/mL G418. Following 24 h incubation at 37 °C with 5% CO2, the medium was discarded and serial 3-fold dilutions of the test compounds—prepared in complete DMEM lacking G418—were added to reach a final volume of 100 µL per well. After an additional 4-day incubation period under the same conditions, the medium was removed, and luciferase activity was assessed using the Steady-Glo luciferase assay kit (Promega, Leiden, The Netherlands). Luminescence was measured with a Luminoskan Ascent reader (Thermo, Vantaa, Finland). The EC50 value was determined as the compound concentration resulting in a 50% decrease in luciferase signal.

[3] = Host-cell metabolic activity (MTS assay) in Huh 5-2 cells; assay type: cell-based; conditions: human
From the text: as §1

HCV subgenomic replicon = assay: Anti-HCV assay in Huh 9-13 cells (real-time quantitative RT-PCR of replicon RNA); assay type: cell-based, hepatitis C virus (HCV); conditions: for % replicon RNA: normalized against no-drug control; for EC50: Hepatitis C virus
Protocol: Furthermore, the antiviral activity of three of the hits (i.e., 7a, 7b, and 18) was validated by evaluation of the dose–response effect of treatment with the compounds at the level of viral RNA replication in the Huh 9-13 assay system. The real-time quantitative RT-PCR readout was used.
Huh 9-13 cells were seeded at 5 × 10^3 cells per well into 96-well plates containing complete DMEM supplemented with 1000 µg/mL G418. […] After 4 days of incubation, the culture medium was removed, and the cell monolayers were washed once with phosphate-buffered saline (PBS). Cells were then lysed using 350 µL of RLT buffer (Qiagen, Venlo, The Netherlands) as per the manufacturer’s protocol, and the lysates were stored at −80 °C for future analysis. Upon completion of sample collection, RNA was extracted, and the samples were analyzed through quantitative real-time PCR to measure their HCV replicon content. The real-time RT-PCR data for all samples were calibrated against the “no-drug control”.
* After collection of all samples, RNA was extracted and samples were analyzed by quantitative real-
time PCR for their HCV replicon content. Real-time RT-PCR values of all assayed samples were
normalized against the “no-drug control”.

[4] = Host-cell metabolic activity in Huh 9-13 cells; assay type: cell-based; conditions: human
Huh 9-13 cells = assay: Host-cell metabolic activity in Huh 9-13 cells; assay type: cell-based
Detroit 551 cells = assay: Cell viability (MTS) assay in Detroit 551 cells; assay type: cell-based; conditions: Detroit 551 cells; for cell death at highest tested concentration: 20 μM; for IC50: Homo sapiens, 72 h incubation, tested starting at 20.0 μM, read-out: IC50 (cell survival rate of 50%)
Protocol: Detroit 551 cells, a human fibroblast cell line, are routinely employed to assess both acute and chronic toxicity in normal human cells. Evaluating the cytotoxicity of compounds in Detroit 551 cells helps to identify potential safety concerns early in drug development. The three promising leads, 7a, 7b, and 18, were tested in a Detroit 551 assay using the antineoplastic and antibiotic agent actinomycin D as a positive control.
Detroit 551 cells were harvested and seeded into a 96-well plate, then incubated at 37 °C for 24 h. A serial dilution of the test compound was prepared in eight three-fold concentrations (20,000 nM, 6667 nM, 2222 nM, 741 nM, 247 nM, 82 nM, 27 nM, and 9 nM), and 10 µL of each dilution was added to the corresponding wells. The plate was then returned to 37 °C for an additional 72 h of incubation. After this incubation, a 3-(4,5-dimethylthiazol-2-yl)-5-(3-carboxymethoxyphenyl)-2-(4-sulfophenyl)-2H-tetrazolium (MTS) assay medium (mixed in a 2:0.1 ratio of MTS–phenazine methyl sulfate (PMS)) was prepared. The plate was moved to a biological safety cabinet, and 21 µL of the MTS medium was added to each well. The plate was then incubated at 37 °C for 90 min before absorbance was measured at 490 nm on a Victor 2 plate reader (PerkinElmer, Inc., Waltham, MA, USA). Data were subsequently analyzed to assess cytotoxicity.

HCV = test system: HCV; set-up: method as in PMID 19303654; conditions: Huh-5-2 cells; cited from earlier work
Huh-5-2 cells = test system: Huh-5-2 cells; set-up: method as in PMID 19303654; conditions: cited from earlier work
[5] = Hepatitis C virus, primary screening, tested starting at 50 μg/mL
[6] = Hepatitis C virus, secondary screen starting at 125 μg/mL, average of triplicate
[7] = Huh 5-2 cells, primary screening starting at 50 μg/mL
[8] = Huh 5-2 cells, secondary screen starting at 125 μg/mL
[9] = primary screening, tested starting at 50 μg/mL
[10] = secondary screen starting at 125 μg/mL
[11] = real-time quantitative RT-PCR readout
[12] = compound 18 tested starting at 125 µg/mL

CC(C)OC(=O)[C@H](C)N[P@](=O)(OC[C@@]1(F)O[C@@H](n2ccc(=O)[nH]c2=O)[C@](C)(O)[C@@H]1O)Oc1ccccc1 [AL-335]
EC50 [1]: 0.07 µM

O=c1oc2ccc(Cl)cc2cc1CSc1ncnc2c1ncn2[C@@H]1O[C@H](CO)[C@@H](O)[C@H]1O [Compound 7b, 6-(6′-Chlorocoumarin-3′-yl)methylthio-9-(β-D-ribofuranos-1″-yl)purine]
EC50 [2, 5]: 8.8 µM | EC50 [2, 6]: 5.6 µM | SI (CC50/EC50) [2, 7]: >12 | SI (CC50/EC50) [2, 8]: >47 | CC50 [3, 9]: > 105 µM | CC50 [3, 10]: > 262 µM | SI (CC50/EC50) (HCV subgenomic replicon): >16 | Quantity (HCV replicon RNA, real-time PCR) (HCV subgenomic replicon; 0.023 µg/ml): 1.11E-04 | % replicon RNA (HCV subgenomic replicon; 0.023 µg/ml): 92% | Quantity (HCV replicon RNA, real-time PCR) (HCV subgenomic replicon; 0.069 µg/ml): 1.33E-04 | % replicon RNA (HCV subgenomic replicon; 0.069 µg/ml): 110% | Quantity (HCV replicon RNA, real-time PCR) (HCV subgenomic replicon; 0.206 µg/ml): 2.07E-04 | % replicon RNA (HCV subgenomic replicon; 0.206 µg/ml): 171% | Quantity (HCV replicon RNA, real-time PCR) (HCV subgenomic replicon; 0.617 µg/ml): 1.03E-04 | % replicon RNA (HCV subgenomic replicon; 0.617 µg/ml): 85% | Quantity (HCV replicon RNA, real-time PCR) (HCV subgenomic replicon; 5.56 µg/ml): 2.85E-05 | % replicon RNA (HCV subgenomic replicon; 5.56 µg/ml): 24% | Quantity (HCV replicon RNA, real-time PCR) (HCV subgenomic replicon; 16.67 µg/ml): 1.64E-05 | % replicon RNA (HCV subgenomic replicon; 16.67 µg/ml): 14% | Quantity (HCV replicon RNA, real-time PCR) (HCV subgenomic replicon; 50 µg/ml): 3.63E-06 | % replicon RNA (HCV subgenomic replicon; 50 µg/ml): 3% | Quantity (HCV replicon RNA, real-time PCR) (HCV subgenomic replicon; 1.852 (7b: 1.85) µg/ml): 9.12E-05 | % replicon RNA (HCV subgenomic replicon; 1.852 (7b: 1.85) µg/ml): 75% | EC50 (HCV subgenomic replicon; [11]): 6.6 µM | EC50 (HCV subgenomic replicon; supplement dose-response data): 3.17 µg/mL | CC50 [4, 12]: > 105 µM | CC50 ([4]; supplement dose-response data): > 50 µg/mL | % cell metabolism (Huh 9-13 cells; 0.023 µg/ml): 100% | % cell metabolism (Huh 9-13 cells; 0.069 µg/ml): 107% | % cell metabolism (Huh 9-13 cells; 0.206 µg/ml): 102% | % cell metabolism (Huh 9-13 cells; 0.617 µg/ml): 108% | % cell metabolism (Huh 9-13 cells; 5.56 µg/ml): 115% | % cell metabolism (Huh 9-13 cells; 16.67 µg/ml): 113% | % cell metabolism (Huh 9-13 cells; 50 µg/ml): 94% | % cell metabolism (Huh 9-13 cells; 1.852 (7b: 1.85) µg/ml): 106% | cell death at highest tested concentration (Detroit 551 cells): none of the three compounds induced cell death | IC50 (Detroit 551 cells): > 20 µM

O=c1ccnc(SCc2cc3cc(Cl)ccc3oc2=O)[nH]1 [Compound 18, 2-[(6′-Chlorocoumarin-3′-yl)methylthio]uracil]
EC50 [2, 5]: 48 µM | EC50 [2, 6]: 87 µM | inhibition at 125 µg/mL ([2]; Hepatitis C virus, Huh 5-2 cells, at 125 μg/mL): > 90% | SI (CC50/EC50) [2, 7]: >3.2 | SI (CC50/EC50) [2, 8]: >4.5 | CC50 [3, 9]: > 156 µM | CC50 [3, 10]: > 390 µM | SI (CC50/EC50) (HCV subgenomic replicon): >41 | Quantity (HCV replicon RNA, real-time PCR) (HCV subgenomic replicon; 0.977 µg/ml): 2.11E-03 | % replicon RNA (HCV subgenomic replicon; 0.977 µg/ml): 66% | Quantity (HCV replicon RNA, real-time PCR) (HCV subgenomic replicon; 1.953 µg/ml): 2.06E-03 | % replicon RNA (HCV subgenomic replicon; 1.953 µg/ml): 64% | Quantity (HCV replicon RNA, real-time PCR) (HCV subgenomic replicon; 3.906 µg/ml): 1.40E-03 | % replicon RNA (HCV subgenomic replicon; 3.906 µg/ml): 44% | Quantity (HCV replicon RNA, real-time PCR) (HCV subgenomic replicon; 7.813 µg/ml): 1.12E-03 | % replicon RNA (HCV subgenomic replicon; 7.813 µg/ml): 35% | Quantity (HCV replicon RNA, real-time PCR) (HCV subgenomic replicon; 15.625 µg/ml): 4.59E-04 | % replicon RNA (HCV subgenomic replicon; 15.625 µg/ml): 14% | Quantity (HCV replicon RNA, real-time PCR) (HCV subgenomic replicon; 31.25 µg/ml): 2.30E-04 | % replicon RNA (HCV subgenomic replicon; 31.25 µg/ml): 7% | Quantity (HCV replicon RNA, real-time PCR) (HCV subgenomic replicon; 62.50 µg/ml): 6.77E-05 | % replicon RNA (HCV subgenomic replicon; 62.50 µg/ml): 2% | Quantity (HCV replicon RNA, real-time PCR) (HCV subgenomic replicon; 125 µg/ml): 4.20E-05 | % replicon RNA (HCV subgenomic replicon; 125 µg/ml): 1% | EC50 (HCV subgenomic replicon; [11]): 9.4 µM | EC50 (HCV subgenomic replicon; supplement dose-response data): 3 µg/mL | CC50 [4, 12]: > 390 µM | CC50 ([4]; supplement dose-response data): > 125 µg/mL | % cell metabolism (Huh 9-13 cells; 0.977 µg/ml): 103% | % cell metabolism (Huh 9-13 cells; 1.953 µg/ml): 92% | % cell metabolism (Huh 9-13 cells; 3.906 µg/ml): 109% | % cell metabolism (Huh 9-13 cells; 7.813 µg/ml): 101% | % cell metabolism (Huh 9-13 cells; 15.625 µg/ml): 98% | % cell metabolism (Huh 9-13 cells; 31.25 µg/ml): 103% | % cell metabolism (Huh 9-13 cells; 62.50 µg/ml): 99% | % cell metabolism (Huh 9-13 cells; 125 µg/ml): 104% | cell death at highest tested concentration (Detroit 551 cells): none of the three compounds induced cell death | IC50 (Detroit 551 cells): > 20 µM

CC(C)(C)NC(=O)N[C@H](C(=O)N1C[C@H]2[C@@H]([C@H]1C(=O)NC(CC1CCC1)C(=O)C(N)=O)C2(C)C)C(C)(C)C (some centres unmarked) [boceprevir]
EC50 (HCV): 0.93 µM | CC50 (Huh-5-2 cells): ≥ 7.4 µM

CCC[C@H](NC(=O)[C@@H]1[C@H]2CCC[C@H]2CN1C(=O)[C@@H](NC(=O)[C@@H](NC(=O)c1cnccn1)C1CCCCC1)C(C)(C)C)C(=O)C(=O)NC1CC1 [telaprevir]
EC50 (HCV): 1.1 µM | CC50 (Huh-5-2 cells): ≥ 24 µM
